Reference: article PMC10419174, “WR1065 conjugated to thiol-PEG polymers as novel anticancer prodrugs: broad spectrum efficacy, synergism, and drug resistance reversal” (Frontiers in Oncology, 2023)
Like-named read-outs stand apart in the source and are kept apart here. Marks after values point to notes of the source that are not given here.

How the values were obtained:
Lung A549 cells [1] = system: Lung A549 cells; set-up: method as in PMID 29258181, PMID 12507923, PMID 35770045, PMID 31488557; conditions: cited from earlier work
Lung NCI-H460 cells [2] = system: Lung NCI-H460 cells; set-up: method as in PMID 29258181, PMID 12507923, PMID 35770045, PMID 31488557; conditions: cited from earlier work
Lung NCI-H1975 cells = system: Lung NCI-H1975 cells; set-up: method as in PMID 29258181, PMID 12507923, PMID 35770045, PMID 31488557; conditions: cited from earlier work
[3] = system: Acute promyelocytic HL60 leukemia cells; set-up: method as in PMID 29258181, PMID 12507923, PMID 35770045, PMID 31488557; conditions: cited from earlier work
Ovary SKOV3 cells [4] = system: Ovary SKOV3 cells; set-up: method as in PMID 29258181, PMID 12507923, PMID 35770045, PMID 31488557; conditions: cited from earlier work
[5] = system: Mammary gland HCC38 cells; test: CyQUANT-NF proliferation assay, 48-h drug treatment; format: cell-based; conditions: 48-h treatment, amifostine ND = not definable up to 500 µM
[6] = system: Mammary gland MDA-MB-231 cells; test: as above; format: cell-based; conditions: Homo sapiens, MDA-MB-231; 48-h treatment; amifostine ND = not definable up to 500 µM
Experimental: Since the BRG prodrugs are composed of WR1065 as one of the major constituents, assays were conducted to determine if factors reported to modulate the activity of amino acid and polyamine plasma membrane transport systems impacted the efficacy of 4SP65 or 1LP65 in selected cancer cell lines. HL60 cells were exposed to 4SP65 with up to 0.5 mM NaCl, MBA-MD-231 cells were tested in the presence and absence of medium supplemented with estradiol plus insulin (in the BulletKit™ for growth supplements for NHMECs), HCC38 cells were exposed to 4SP65 with and without 10 µM insulin added to the growth medium, and multiple cells lines were pretreated for 24 h with 1 mM DFMO prior to starting exposures to 4SP65.
(§1) The percentage of growth inhibition was calculated as follows: […]

A549 NSCLC cells = test: cells
Experimental: as §1

[7] = system: Malignant pleural mesothelioma PPMMill cells; test: cells; conditions: 48 h
Experimental: as §1

NCI-H1975 NSCLC cells = test: cells; conditions: Homo sapiens, NCI-H1975, 48 h
Experimental: as §1

Ovary SKOV3 cells [8] = test: cells
Experimental: as §1

Ovary TOV21G cells = test: cells
Experimental: as §1

Pancreas PANC-1 cells [9] = test: cells; conditions: Homo sapiens, PANC-1, 48 h
Experimental: as §1

Prostate DU145 cells [10] = test: cells; conditions: Homo sapiens, DU-145, 48 h
Experimental: as §1

Prostate LNCaP cells = test: cells; conditions: Homo sapiens, LNCaP, 48 h
Experimental: as §1

Prostate PC3 cells [11] = test: cells
Experimental: as §1

human cancer cell lines = test: cells; conditions: for cytolytic effects: exposure levels up to 500 µM, 48 h; for GI50: Homo sapiens
Experimental: as §1

[12] = system: human Hec50co (p53-null) endometrial tumor xenografts; conditions: single agent; cited from earlier work
[13] = system: Malignant pleural mesothelioma HMESO1 cells; conditions: drug alone, 48 h, 4SP65/cisplatin study
Experimental: as §1

NCI-H460 NSCLC cells = conditions: drug alone, 48 h, 4SP65/cisplatin study
Excerpt: To test anticancer effectiveness of individual drugs or drug combinations, the CyQUANT®-NF proliferation assay was used with a plate reader (i) to generate standard curves for cell numbers for each cell line, (ii) to measure the starting cell numbers at initiation of drug treatment, and (iii) to obtain fluorescence readings from cells in 96-well plates for comparisons to a standard curve for the relevant cancer cell line and quantifying cell viability after drug treatments. […] Trypan blue exclusion was used to estimate cell numbers in a few pilot experiments and thereafter was applied to confirm very low viable cell numbers and cell death.
A series of experiments was conducted to determine the relative efficacy of 4SP65, 1LP65, and amifostine as single agents in the same human cancer cell lines.
Five metrics were calculated and used to characterize the shape of the dose-response curve following exposure to a single test agent. Using cell numbers based on fluorescence measurements and standard curves, the percentage growth was calculated at each drug concentration level. The percentage of growth inhibition was calculated as follows:
where Tz = cell numbers or fluorescence counts at time xero, C = vehicle-exposed control cell numbers at the end of the assessment time period, and Ti = test agent-exposed cell numbers or fluorescence counts at each drug concentration. […] The LC50/99 was calculated using Equation 2 = -50 and Eq. 2 = -99, respectively. […] For NHMECs, the relationships between drug exposure levels and fluorescence units were used to define dose-response metrics. The selectivity index values for individual drugs were calculated using IC50 levels in NHMECs divided by the IC50 value for each cancer cell line. Statistical comparisons of differences in individual dose-response metrics between drug treatments and cell lines were conducted using Student’s t-test, with P-values <0.05 considered significant.
Relative cell growth inhibition values for differing levels of each drug alone and in combination were input into SynergyFinder to generate dose-response curves for each drug alone and to produce a dose-response matrix. The dose-response matrix data then were used in generating a two-dimension heatmap and three-dimension volcano plot to visualize the distribution of areas of differing degrees of synergism and to calculate average and maximum synergy scores in selected human cancer cell lines. The expected drug combination responses were calculated using both the Highest Single Agent (HSA) model and the Zero interaction potency (ZIP) model.

Prostate DU145 cells [14] = system: Prostate DU145 cells; set-up: method as in NCI Database of Screening Results; conditions: ref NCI Database of Screening Results; cited from earlier work
Lung A549 cells [15] = conditions: cited from earlier work; for GI50 / TGI: ref NCI Database of Screening Results
Lung NCI-H460 cells [16] = conditions: cited from earlier work; for GI50 / TGI: ref NCI Database of Screening Results
[17] = system: Mammary gland MDA-MB-231 cells; conditions: cited from earlier work; for GI50: ref NCI Database of Screening Results
Prostate PC3 cells [18] = conditions: cited from earlier work
Ovary SKOV3 cells [19] = conditions: cited from earlier work; for GI50 / TGI: ref NCI Database of Screening Results
[20] = cited from earlier work
[21] = system: Mammary gland MDA-MB-231 cells; set-up: method as in PMID 29258181, PMID 12507923, PMID 35770045, PMID 31488557; conditions: cited from earlier work
Pancreas PANC-1 cells [22] = system: Pancreas PANC-1 cells; set-up: method as in PMID 29258181, PMID 12507923, PMID 35770045, PMID 31488557; conditions: cited from earlier work
[23] = system: Acute promyelocytic HL60 leukemia cells; conditions: cited from earlier work
[24] = system: temperature-dependent p53 mutants; set-up: method as in PMID 11429700, PMID 11870884, PMID 22710932, PMID 17724467; conditions: 11 temperature-dependent mutants analyzed; cited from earlier work
[25] = ND = not definable, highest concentration in parentheses
[26] = drug alone, 48 h, 4SP65/cisplatin study
[27] = drug alone, 4SP65/cisplatin study
[28] = drug alone, 4SP65/cisplatin study, ND = not definable, highest concentration in parentheses
[29] = drug alone, 48 h, 4SP65/cisplatin study, ND = not definable, highest concentration in parentheses
[30] = ref NCI Database of Screening Results

## COCC1(CO)C(=O)C2CCN1CC2 (stereo not drawn) [APR-246]
Lung A549 cells [1]
  IC50: 29 µM
Lung NCI-H460 cells [2]
  IC50: 225 µM
Lung NCI-H1975 cells
  IC50: 9.6 µM
[3]
  IC50: ~20 µM
Ovary SKOV3 cells [4]
  IC50: 16.7 µM

## NCCCNCCSP(=O)(O)O [Amifostine, amifostine, reference compound]
[5]
  TGI: 254 ± 123 µM
[5]; Homo sapiens, HCC38
  GI50: 78.1 ± 35.7 µM
  IC50: 276 ± 92 µM
[6]
  GI50: 241 ± 130 µM
A549 NSCLC cells; Homo sapiens, A549, 48 h
  GI50: 241 ± 130 µM
  IC50: 261 ± 120 µM
[7]; Homo sapiens
  GI50: 378 ± 122 µM
NCI-H1975 NSCLC cells
  GI50: 130 ± 26 µM
Ovary SKOV3 cells [8]; Homo sapiens, SK-OV-3, 48 h
  GI50: 81 ± 13 µM
  IC50: 294 ± 119 µM
Ovary TOV21G cells; Homo sapiens, TOV21G, 48 h
  GI50: 47 ± 10 µM
  IC50: 57 ± 9 µM
Pancreas PANC-1 cells [9]
  GI50: 113 ± 39 µM
Prostate DU145 cells [10]
  GI50: 126 ± 28 µM
  IC50: 319 ± 105 µM
Prostate LNCaP cells
  GI50: 150 ± 47 µM
  IC50: 378 ± 122 µM
Prostate PC3 cells [11]; 48-h treatment, amifostine ND = not definable up to 500 µM
  TGI: 301 ± 115 µM
Prostate PC3 cells [11]; Homo sapiens, PC-3, 48 h
  GI50: 53 ± 10 µM
  IC50: 103 ± 15 µM
Human cancer cell lines
  LC50: Not definable ^k
Human cancer cell lines; 14 cell lines
  cancer cell lines with limited cytostatic effects: 11/14
  cytolytic effects: no cytolytic effects
Human cancer cell lines; 14 cell lines, listed as amifostine
  cytolytic effects: not found in any cell line
Human cancer cell lines; 14 cell lines, highest concentration 500 µM
  LC99: Not definable ^k
Human cancer cell lines; read-out: GI50 average, GI50 values >100 µM in 7/14 cell lines
  GI50: 149 µM
Human cancer cell lines; read-out: GI50 range, GI50 values <100 µM in 4/14 cell lines: HCC38, PC3, SKOV3, TOV21G
  GI50: 47 to 81 µM
Human cancer cell lines; read-out: GI50 range, seven of 14 cell lines
  GI50: 113 to 378 µM
Human cancer cell lines; read-out: average GI50, four cell lines where amifostine GI50 <100 µM
  GI50: 64.8 µM
Human cancer cell lines; only two cell lines, HCC38 and PC3
  TGI average: 278 ± 24 ^j µM
[12]
  inhibition of tumor xenograft growth compared to tumor size at start of treatment: ~ 50%

## N.N.[Cl][Pt][Cl] [Cisplatin, cisplatin, reference compound]
[13]
  GI50: 3 ± 0.4 µM
  IC50: 8.6 ± 1.1 µM
  TGI: 6.7 ± 0.7 µM
[13]; [25]
  LC99: ND (>15) µM
A549 NSCLC cells; 4SP65-cisplatin combined
  gains of cytostatic and cytolytic activities, range: 1.7- to 3.5 fold
A549 NSCLC cells; amount of each drug in combination, ratio 50% 4SP65:50% DDP, 48 h
  LC99, drug in combination (CMB): 7 µM
A549 NSCLC cells; [26]
  GI50: 3.5 ± 0.7 µM
  IC50: 4.7 ± 0.8 µM
  LC99: 24.4 ± 2.6 µM
  TGI: 8.2 ± 1.0 µM
[7]; [27]
  GI50: 27.2 ± 3.4 µM
  IC50: 40.5 ± 8.1 µM
[7]; [28]
  LC99: ND (>100) µM
  TGI: ND (>100) µM
Ovary SKOV3 cells [8]; [26]
  GI50: 5.3 ± 0.4 µM
  IC50: 6.7 ± 0.6 µM
Ovary SKOV3 cells [8]; [29]
  LC99: ND (>21) µM
  TGI: ND (>21) µM
Ovary TOV21G cells; 4SP65-cisplatin combined
  gains in total growth inhibition and cytolytic effects, range: 1.3- to 2.9 fold
Ovary TOV21G cells; amount of each drug in combination, ratio 14% 4SP65:86% DDP, 48 h
  LC99, drug in combination (CMB): 5.9 µM
Ovary TOV21G cells; [26]
  GI50: 2.2 ± 0.4 µM
  IC50: 3 ± 0.3 µM
  LC99: 17.2 µM
  TGI: 6.7 ± 0.3 µM
Ovary TOV21G cells; drug alone, 48 h, 4SP65/cisplatin study, listed as DDP
  LC99: 17.2 ± 5.2 µM
Human cancer cell lines; 4SP65-cisplatin combined, H460, HMESO1, PPMMill, SKOV3
  gains of cytostatic and cytolytic activities, range: 1.7- to 6.9 fold
NCI-H460 NSCLC cells
  GI50: 3.1 ± 0.1 µM
  IC50: 4 ± 0.1 µM
NCI-H460 NSCLC cells; [25]
  LC99: ND (>15) µM
  TGI: ND (>15) µM
Prostate DU145 cells [14]
  GI50: 2 µM
Lung A549 cells [15]
  GI50: 3.8 µM
  TGI: >100 µM
Lung NCI-H460 cells [16]
  GI50: 0.6 µM
  TGI: >100 µM
[17]
  GI50: 22.4 µM
Prostate PC3 cells [18]; [30]
  GI50: 5 µM
Ovary SKOV3 cells [19]
  GI50: 2.5 µM
  TGI: >100 µM

## COc1cc2ncnc(Nc3ccc(F)c(Cl)c3)c2cc1OCCCN1CCOCC1 [GEF, gefitinib, reference compound]
[20]; 250 mg daily, after 3 days of treatment
  trough levels: 0.257−4.50 µM
[20]; 250 mg daily, after 8 days of treatment
  trough levels: 0.282−6.55 µM
[20]; 250 mg daily, printed 'or more', read-out: Cmax plasma concentrations
  Cmax: 500 to 1000 nM
[20]
  elimination half-life: 48 h

## O=C1C2CCN(CC2)C1(CO)CO [PRIMA-1]
Lung A549 cells [1]
  GI50: 63 µM
Lung NCI-H460 cells [2]
  GI50: 40 µM
[21]
  IC50: 141 µM
Ovary SKOV3 cells [4]
  GI50: 63 µM
Pancreas PANC-1 cells [22]
  IC50: 66 µM

## CC(=O)O[C@H]1C(=O)[C@@]2(C)[C@H]([C@H](OC(=O)c3ccccc3)[C@]3(O)C[C@H](OC(=O)[C@H](O)[C@@H](NC(=O)c4ccccc4)c4ccccc4)C(C)=C1C3(C)C)[C@]1(OC(C)=O)CO[C@@H]1C[C@@H]2O [Paclitaxel, paclitaxel]
Prostate DU145 cells [14]
  GI50: 1.9 µM
  TGI: >100 µM
[12]
  inhibition of tumor xenograft growth compared to tumor size at start of treatment: ~ 50%
Lung A549 cells [15]
  CC50: > 100 µM
  GI50: 9.2 µM
  TGI: >100 µM
Lung NCI-H460 cells [16]
  CC50: > 100 µM
  GI50: 5.8 µM
  TGI: 90.4 µM
[23]
  CC50: > 100 µM
[23]; [30]
  GI50: 25.8 µM
  TGI: >100 µM
[17]
  CC50: > 100 µM
  GI50: 6.4 µM
Prostate PC3 cells [18]
  CC50: > 100 µM
Prostate PC3 cells [18]; [30]
  GI50: 36.4 µM
  TGI: >100 µM
Ovary SKOV3 cells [19]
  CC50: > 100 µM
  GI50: 0.52 µM
  TGI: 5.2 µM

## NCCCNCCS [WR1065, 2-[(3-aminopropyl)amino]ethanethiol]
[24]
  p53 mutants reactivated to some degree: 8/11
